In experiment [1] the test system is Nedd4. The arrangement: method as in PMID 27979631. Particulars: cited from earlier work.
The target in experiment [2] is T1, Nedd4 (Homo sapiens, UniProt P46934).
T1 sequence (P46934 1-900 isoform P46934-4): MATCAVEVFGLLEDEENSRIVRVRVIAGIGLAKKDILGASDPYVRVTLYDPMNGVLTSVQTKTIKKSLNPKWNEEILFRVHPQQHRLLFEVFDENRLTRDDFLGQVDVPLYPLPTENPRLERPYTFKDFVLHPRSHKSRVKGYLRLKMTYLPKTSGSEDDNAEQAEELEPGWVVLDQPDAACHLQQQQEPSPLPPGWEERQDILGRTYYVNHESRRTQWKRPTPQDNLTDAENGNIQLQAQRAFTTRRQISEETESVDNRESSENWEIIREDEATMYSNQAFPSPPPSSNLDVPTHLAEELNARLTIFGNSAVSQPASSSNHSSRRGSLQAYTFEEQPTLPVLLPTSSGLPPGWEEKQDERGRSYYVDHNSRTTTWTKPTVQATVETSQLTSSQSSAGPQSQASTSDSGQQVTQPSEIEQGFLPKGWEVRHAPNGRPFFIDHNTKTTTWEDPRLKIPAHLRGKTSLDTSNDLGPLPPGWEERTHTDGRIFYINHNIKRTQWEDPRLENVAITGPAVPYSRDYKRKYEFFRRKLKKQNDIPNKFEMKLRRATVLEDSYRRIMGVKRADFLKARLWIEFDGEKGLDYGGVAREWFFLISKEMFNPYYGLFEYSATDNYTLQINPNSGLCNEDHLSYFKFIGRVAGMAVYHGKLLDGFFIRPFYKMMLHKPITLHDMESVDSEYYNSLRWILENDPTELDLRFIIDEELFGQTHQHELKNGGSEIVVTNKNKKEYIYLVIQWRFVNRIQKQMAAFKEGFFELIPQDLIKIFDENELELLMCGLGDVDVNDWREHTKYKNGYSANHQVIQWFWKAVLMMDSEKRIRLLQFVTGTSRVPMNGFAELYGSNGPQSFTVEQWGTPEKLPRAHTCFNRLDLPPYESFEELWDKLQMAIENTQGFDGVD
Procedure: (§1) All time-resolved fluorescence resonance energy transfer (TR-FRET) auto-ubiquitination assays were performed in a final volume of 10 µL in PerkinElmer 384-well flat bottom white OptiPlate™ polystyrene microplates (PerkinElmer Cat. No. 6007290). […] A low concentration of NP-40 detergent (0.00063% v/v) was chosen for the Nedd4 auto-ubiquitination assay since this concentration yielded optimal terbium emission at 485 nm after 340 nm excitation (Supplementary Fig. 2). […] Reaction mixes containing all assay components except ATP-MgCl2 were preincubated with either library compounds dissolved in 1% DMSO or DMSO alone at RT for up to 2 h. To initiate the auto-ubiquitination reaction, 2 mM ATP-MgCl2 was added and incubated at 37 °C for 60–90 min. TR-FRET signal was measured in a Synergy 4 microplate reader (BioTek) using a 340/30 nm excitation filter and measuring the emission ratio using 485/20 nm and 528/20 nm emission filters. Fluorescence measurement was performed over a 400 µs window following a 100 µs delay post-excitation (Fig. 1).
(§2) All experiments were performed in triplicate (n = 3), and plotted values represent the average of three replicates with the standard deviation. TR-FRET signal refers to background values subtracted using control wells containing Tb-SA and Ub-FITC. Data were plotted using GraphPad 9.1.2 (GraphPad, La Jolla, CA) and fitted to a four-parameter sigmoidal dose–response curve. Where applicable, the dose–response was normalized and expressed as a percentage of auto-ubiquitination activity relative to the DMSO control.

Experiment [3] has as its target T1, Nedd4. Briefly: biochemical.
Procedure: as §1, §2
The next experiment has as its target WWP2 (Homo sapiens, UniProt O00308). Conditions: 200 µM.
Another experiment addresses WWP1 (Homo sapiens, UniProt Q9H0M0). Particulars: 200 µM.
Another experiment concerns the target T2, Nedd4 C867A (Homo sapiens, UniProt P46934, C1286A).
T2 construct: full length C182A, C627A, C867A, and C627A + C867A mutants; made in house; host or cells: E. coli BL21 (D3)-BirA
T2 sequence (P46934 1-900 isoform P46934-4 C867A): T1 sequence (P46934 1-900 isoform P46934-4) with C867A
Briefly: TR-FRET auto-ubiquitination assay of Nedd4 mutant C867A. Conditions: 200 µM, 2 h at RT. Format: biochemical. A general note: TR-FRET usually uses a lanthanide donor and a delayed reading to cut background.

The target in another experiment is T3, Nedd4 C627A (Homo sapiens, UniProt P46934, C1046A).
T3 construct: full length C182A, C627A, C867A, and C627A + C867A mutants; made in house; host or cells: E. coli BL21 (D3)-BirA
T3 sequence (P46934 1-900 isoform P46934-4 C627A): T1 sequence (P46934 1-900 isoform P46934-4) with C627A
Briefly: TR-FRET auto-ubiquitination assay of Nedd4 mutant C627A. Type of experiment: biochemical. Conditions: 2 h at RT, read-out: retention of uninhibited C627A activity.

In experiment [4] the target is T1, Nedd4. Briefly: LC–MS/MS covalent adduction and site identification. Type of experiment: binding. The arrangement: 30 µg of N-terminal His-tagged and C-terminal biotinylated Nedd4 (residue 1–900); made in house; host or cells: E. coli BL21 (D3)-BirA. The method, then:
Samples were run on SDS-PAGE and stained with Coomassie Brilliant Blue R-250 (Thermo Fisher Scientific cat no. 20278). Gels were destained in water until the desired contrast was reached. The Nedd4 bands were cut and stored in 1% acetic acid at 4 °C until use. Samples were submitted to the SPARC Molecular Analysis Centre at the Hospital for Sick Children (Toronto, ON, CA) for LC–MS/MS analysis. Each gel band was cut into 3 pieces and digested with 0.8 µg pepsin, 0.6 µg trypsin and 0.6 µg chymotrypsin separately. The peptides obtained through the proteolytic digest were combined then lyophilized and resuspended in 0.1% formic acid. These samples were then subjected to MS/MS spectroscopy by an EASY-nLC 1200 nano-LC system + Thermo Scientific Orbitrap Fusion Lumos Tribrid mass spectrometer. MS data was analyzed using Scaffold PTM 4.0.1.

In the next experiment the target is T4, Nedd4 C627A + C867A (Homo sapiens, UniProt P46934, C1046A/C1286A).
T4 construct: full length C182A, C627A, C867A, and C627A + C867A mutants; made in house; host or cells: E. coli BL21 (D3)-BirA
T4 sequence (P46934 1-900 isoform P46934-4 C627A/C867A): T1 sequence (P46934 1-900 isoform P46934-4) with C627A, C867A
Briefly: TR-FRET auto-ubiquitination assay of Nedd4 double mutant C627A + C867A. Format: biochemical. Conditions: 200 µM, 2 h at RT.

The target of experiment [5] is T1, Nedd4. Put plainly: Western blotting for ubiquitination and biotinylated Nedd4. Format: biochemical. Conditions: 50 and 100 µM, 2 h at RT. The method, then:
The auto-ubiquitination reactions were initiated with the addition of 2 mM ATP-MgCl2. Another control reaction was performed without the addition of ATP-MgCl2 for comparison (negative control).
In general terms: In western blotting, separated proteins are transferred to a membrane and probed.

The mark [6] stands for this setting: 200 µM compound, 3 h incubation.

Structures are written as SMILES. Residue numbers refer to the chain shown, from its start. “And” between values parts separate entries of the source, which are not always exact repeats. Identical values can stand only once. Like-named read-outs stand apart in the source and are kept apart here.

Chain of WWP1 (Q9H0M0 349-922): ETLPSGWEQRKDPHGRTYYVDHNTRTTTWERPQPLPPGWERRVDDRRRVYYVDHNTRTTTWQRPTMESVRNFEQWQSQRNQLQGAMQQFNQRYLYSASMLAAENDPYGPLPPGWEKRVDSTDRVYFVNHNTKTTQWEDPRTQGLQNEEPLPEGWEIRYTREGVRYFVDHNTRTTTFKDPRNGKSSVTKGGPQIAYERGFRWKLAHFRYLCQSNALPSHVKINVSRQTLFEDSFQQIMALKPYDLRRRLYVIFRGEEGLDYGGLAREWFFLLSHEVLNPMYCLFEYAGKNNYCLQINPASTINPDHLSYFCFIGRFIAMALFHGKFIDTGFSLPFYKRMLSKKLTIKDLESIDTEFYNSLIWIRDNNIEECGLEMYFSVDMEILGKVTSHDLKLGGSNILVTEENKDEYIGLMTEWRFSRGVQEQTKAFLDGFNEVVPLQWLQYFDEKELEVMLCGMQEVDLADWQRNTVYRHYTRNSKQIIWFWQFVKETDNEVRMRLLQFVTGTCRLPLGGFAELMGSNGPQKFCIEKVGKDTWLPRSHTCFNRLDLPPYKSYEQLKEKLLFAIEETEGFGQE
Chain of WWP2 (O00308 whole entry): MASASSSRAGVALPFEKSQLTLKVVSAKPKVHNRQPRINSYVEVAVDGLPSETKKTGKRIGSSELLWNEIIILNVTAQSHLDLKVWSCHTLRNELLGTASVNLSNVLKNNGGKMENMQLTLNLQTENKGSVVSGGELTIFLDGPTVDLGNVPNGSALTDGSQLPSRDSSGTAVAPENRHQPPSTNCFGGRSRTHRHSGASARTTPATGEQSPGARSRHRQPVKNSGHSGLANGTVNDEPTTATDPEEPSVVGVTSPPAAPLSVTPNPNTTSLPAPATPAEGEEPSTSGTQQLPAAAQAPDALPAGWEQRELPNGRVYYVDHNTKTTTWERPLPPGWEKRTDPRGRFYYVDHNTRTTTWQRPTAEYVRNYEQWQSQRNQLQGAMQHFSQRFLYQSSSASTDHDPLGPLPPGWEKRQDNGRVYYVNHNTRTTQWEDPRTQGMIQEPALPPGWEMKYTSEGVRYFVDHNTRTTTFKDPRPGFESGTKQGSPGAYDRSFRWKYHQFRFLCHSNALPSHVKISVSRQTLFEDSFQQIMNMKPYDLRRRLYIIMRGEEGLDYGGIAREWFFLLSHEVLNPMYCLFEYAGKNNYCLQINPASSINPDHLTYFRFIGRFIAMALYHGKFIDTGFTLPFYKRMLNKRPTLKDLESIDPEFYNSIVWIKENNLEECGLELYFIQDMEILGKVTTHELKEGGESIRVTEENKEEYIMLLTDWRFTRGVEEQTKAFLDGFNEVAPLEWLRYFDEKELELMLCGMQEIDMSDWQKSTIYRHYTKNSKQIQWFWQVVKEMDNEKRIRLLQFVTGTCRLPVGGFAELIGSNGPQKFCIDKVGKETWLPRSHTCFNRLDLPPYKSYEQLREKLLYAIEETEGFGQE
Procedure for Nedd4 C627A + C867A: (§3) All time-resolved fluorescence resonance energy transfer (TR-FRET) auto-ubiquitination assays were performed in a final volume of 10 µL in PerkinElmer 384-well flat bottom white OptiPlate™ polystyrene microplates (PerkinElmer Cat. No. 6007290). […] A low concentration of NP-40 detergent (0.00063% v/v) was chosen for the Nedd4 auto-ubiquitination assay since this concentration yielded optimal terbium emission at 485 nm after 340 nm excitation (Supplementary Fig. 2). Concentrations of Ub activating (E1) and conjugating (E2) enzymes and fluorophores were selected to provide sufficient TR-FRET signal intensity for compound screening without excessive reagent consumption (Supplementary Fig. 3). Reaction mixes containing all assay components except ATP-MgCl2 were preincubated with either library compounds dissolved in 1% DMSO or DMSO alone at RT for up to 2 h. […] TR-FRET signal was measured in a Synergy 4 microplate reader (BioTek) using a 340/30 nm excitation filter and measuring the emission ratio using 485/20 nm and 528/20 nm emission filters. Fluorescence measurement was performed over a 400 µs window following a 100 µs delay post-excitation (Fig. 1).
(§4) All assays were carried out in triplicate with the data representing the mean with standard deviation. […] Auto-ubiquitination reactions were allowed to proceed for 1 h at 37 °C and then read through the TR-FRET assay described in the methods.
Procedure for Nedd4 C867A: as §3, §4
Procedure for WWP1: (§5) All time-resolved fluorescence resonance energy transfer (TR-FRET) auto-ubiquitination assays were performed in a final volume of 10 µL in PerkinElmer 384-well flat bottom white OptiPlate™ polystyrene microplates (PerkinElmer Cat. No. 6007290). […] Concentrations of Ub activating (E1) and conjugating (E2) enzymes and fluorophores were selected to provide sufficient TR-FRET signal intensity for compound screening without excessive reagent consumption (Supplementary Fig. 3). Reaction mixes containing all assay components except ATP-MgCl2 were preincubated with either library compounds dissolved in 1% DMSO or DMSO alone at RT for up to 2 h. To initiate the auto-ubiquitination reaction, 2 mM ATP-MgCl2 was added and incubated at 37 °C for 60–90 min. TR-FRET signal was measured in a Synergy 4 microplate reader (BioTek) using a 340/30 nm excitation filter and measuring the emission ratio using 485/20 nm and 528/20 nm emission filters. Fluorescence measurement was performed over a 400 µs window following a 100 µs delay post-excitation (Fig. 1). Similarly, TR-FRET assays were used to measure the auto-ubiquitination activity of two other Nedd4 family HECT E3 ligases (WWP1 and WWP2) using alternative optimized buffer and fluorophore concentrations to test Nedd4 inhibitor specificity (Supplementary Table 2).
For selectivity assays, we used C-terminal His-tagged WWP1 and WWP2 bound to Tb-labelled
anti-His-tag antibody and FITC-labelled ubiquitin.
Tb-SA 50 nM AntiHis-Tb 16.5 nM AntiHis-Tb 10 nM
NaCl 150 mM NaCl 0 mM NaCl 0 mM
TCEP 0.1 mM TCEP 0.1 mM TCEP 0.1 mM
DMSO 1 % DMSO 1 % DMSO 1 %
MgCl2 2 mM MgCl2 2 mM MgCl2 2 mM
ATP 2 mM ATP 2 mM ATP 2 mM
Procedure for WWP2: as §5
For selectivity assays, we used C-terminal His-tagged WWP1 and WWP2 bound to Tb-labelled […]

Usually IC50 stands for the concentration that inhibits the measured activity by half. For `OCc1cn(Cc2ccccc2)c2ccccc12` [Compound 1-benzyl-I3C, 1-benzyl-I3C], the IC50 with Nedd4 [1] (measured through an ELISA-based assay of Nedd4 activity) is 12.3 µM.
A word on the inhibition: it is how much of the control response was suppressed. A higher inhibition goes with a strong effect. Regarding `OCc1c[nH]c2ccccc12` [Compound 5, Indole-3-carbinol, reference compound], at Nedd4 [2] (500 µM), the inhibition came out at 33%. The IC50 in the experiment on Nedd4 [1] (previously reported) was 284 µM.
Consider `Cn1cc(C(=O)CCl)c2ccccc21` [Compound 6], for which the IC50 on Nedd4 [3] was 174 µM and 170 µM.
With `COC(=O)c1ccc2[nH]cc(C(=O)CCl)c2c1` [Compound 11], the half-maximal inhibitory concentration (IC50) at Nedd4 [3] is 96.8 µM and 100 µM.
With `O=C(CCl)c1c[nH]c2ccncc12` [Compound 13], the inhibition at WWP2 was 58% and 73%; at WWP1, 47% and 72%.
As for `Cc1cc(C(=O)CCl)c(C)n1-c1ccccc1` [Compound 20], the 50% inhibitory concentration (IC50) on Nedd4 [3] was 244 µM and 240 µM.
The same measure, in the same setting: the figure for `COCCn1c(C)cc(C(=O)CCl)c1C` [Compound 21] is 143 µM and 140 µM.
In turn, `Cc1cc(C(=O)CCl)c(C)[nH]1` [Compound 23] yielded an inhibition on WWP1 of about 25%. The IC50 against Nedd4 [3] is < 60 µM and 56 µM.
In the case of `Cn1ccc(C(=O)CCl)c1` [Compound 24], the IC50 against Nedd4 [3] was 116 µM and 115 µM.
With `O=C(CCl)c1c[nH]c2ccccc12` [Compound 25], the inhibition against WWP1 was about 25%.
For `Cc1cc(C(=O)CCl)c(C)n1CCC(C)C` [Compound 29], the IC50 against Nedd4 [3] is 88 µM and 90 µM.
The same measure, in the same setting: the figure for `Cc1cc(C(=O)C(C)Cl)c(C)n1Cc1ccco1` (centres unmarked) [Compound 36] is 113 µM and 110 µM.
Compound `O=C(CCl)c1ccccn1` [Compound 81] registered an inhibition on Nedd4 [2] (200 µM) of over 50%. Moreover, at Nedd4 C867A, the “change of C867A mutant activity on incubation with compound” value was “No significant differences”. Further, the activity at 200 µM on Nedd4 C627A was determined as 30%. The “cysteine adduction sites confirmed by MS/MS” value on Nedd4 [4] (200 µM compound, 3 h at RT) is given as “all three of the confirmed cysteine residues”. Besides, on Nedd4 [4] (setting [6]), the “Occurrence Among Observed Peptides, Cysteine Site C182” value is listed as 25/67; the “Occurrence Among Observed Peptides, Cysteine Site C627” value is on record as 8/12; the “Occurrence Among Observed Peptides, Cysteine Site C867” value is 21/50. Also, at Nedd4 [4] (sheet "81 Mod Cys627", per peptide spectrum match, residues 639-657, C11 or C9 of the peptide), the “Localization Probability of Compound 81 modification on cysteine (Cys627 peptide)” value is 100% and 72%, 0%, 100% and 100%, 100%. The IC50 against Nedd4 [3] was 31 µM and < 60 µM. Besides, the “change of C627A + C867A mutant activity on incubation with compound” value on Nedd4 C627A + C867A was “No significant differences”. For the same compound, the “effect on Nedd4 auto-ubiquitination by Western blot” value on Nedd4 [5] was “complete loss of auto-ubiquitination”.

Values taken from article PMC10520017, “Discovery of Nedd4 auto-ubiquitination inhibitors” (Scientific Reports, 2023).
